Results from US20260365634A1, “HERBICIDAL PYRAZOLE COMPOUNDS” (SYNGENTA CROP PROTECTION AG, priority 2022, published 2026).

Experiments:
Format in all cases: in vivo
Conditions in all cases: 250 g/ha, evaluated after 13 days
[1] = system: Amaranthus palmeri (AMAPA); experiment: Post-emergence herbicidal glasshouse test
Description: (§1) Seeds of a variety of test species are sown in standard soil in pots Amaranthus palmeri (AMAPA), Amaranthus retoflexus (AMARE), Echinochloa crus-galli (ECHCG), Ipomoea hederacea (IPOHE), Setaria faberi (SETFA). After cultivation for one day (pre-emergence) or after 8 days cultivation (post-emergence) under controlled conditions in a glasshouse (at 24/16 °C, day/night; 14 hours light; 65% humidity), the plants are sprayed with an aqueous spray solution derived from the formulation of the technical active ingredient in acetone/water (50:50) solution containing 0.5% Tween 20 (polyoxyethelyene sorbitan monolaurate, CAS RN 9005-64-5). Compounds are applied at 250 g/ha unless otherwise stated. The test plants are then grown in a glasshouse under controlled conditions in a glasshouse (at 24/16 °C, day/night; 14 hours light; 65% humidity) and watered twice daily. After 13 days for pre and post-emergence, the test is evaluated for the percentage damage caused to the plant. The biological activities are shown in the following table on a five-point scale (5=81-100%; 4=61-80%; 3=41-60%; 2=21-40%; 1=0-20%).

[2] = system: Amaranthus retoflexus (AMARE); experiment: Post-emergence herbicidal glasshouse test
Description: as §1

[3] = system: Echinochloa crus-galli (ECHCG); experiment: Post-emergence herbicidal glasshouse test
Description: as §1

[4] = system: Ipomoea hederacea (IPOHE); experiment: Post-emergence herbicidal glasshouse test
Description: as §1

[5] = system: Amaranthus palmeri (AMAPA); experiment: Pre-emergence herbicidal glasshouse test
Description: as §1

[6] = system: Amaranthus retoflexus (AMARE); experiment: Pre-emergence herbicidal glasshouse test
Description: as §1

[7] = system: Echinochloa crus-galli (ECHCG); experiment: Pre-emergence herbicidal glasshouse test
Description: as §1

[8] = system: Ipomoea hederacea (IPOHE); experiment: Pre-emergence herbicidal glasshouse test
Description: as §1

Setaria faberi (SETFA) [9] = experiment: Post-emergence herbicidal glasshouse test
Description: as §1

Setaria faberi (SETFA) [10] = experiment: Pre-emergence herbicidal glasshouse test
Description: as §1

SMILES | percentage damage caused to the plant (five-point scale), AMAPA [1] | percentage damage caused to the plant (five-point scale), AMARE [2] | percentage damage caused to the plant (five-point scale), ECHCG [3] | percentage damage caused to the plant (five-point scale), IPOHE [4] | percentage damage caused to the plant (five-point scale), AMAPA [5] | percentage damage caused to the plant (five-point scale), AMARE [6] | percentage damage caused to the plant (five-point scale), ECHCG [7] | percentage damage caused to the plant (five-point scale), IPOHE [8] | percentage damage caused to the plant (five-point scale), SETFA (Setaria faberi (SETFA) [9]) | percentage damage caused to the plant (five-point scale), SETFA (Setaria faberi (SETFA) [10])
FC(F)c1cc(Cc2ncc(Cl)cn2)n(CCC2CCOC2)n1 (stereo not drawn) [Compound 1.001] | 1 (0-20%) | 1 (0-20%) | 1 (0-20%) | 2 (21-40%) | 2 (21-40%) | 1 (0-20%) | 1 (0-20%) | 2 (21-40%) |  | 
CCCCn1nc(C(F)F)cc1Cc1ncc(Cl)cn1 [Compound 1.011] | 2 (21-40%) | 2 (21-40%) | 1 (0-20%) | 2 (21-40%) | 5 (81-100%) | 5 (81-100%) | 2 (21-40%) | 3 (41-60%) |  | 
C=CCCn1nc(C(F)F)cc1Cc1ncc(Cl)cn1 [Compound 1.021] | 2 (21-40%) | 3 (41-60%) | 1 (0-20%) | 1 (0-20%) | 5 (81-100%) | 5 (81-100%) | 2 (21-40%) | 1 (0-20%) | 1 (0-20%) | 3 (41-60%)
FC(F)c1cc(Cc2ncc(Cl)cn2)n(CCn2ccc(C(F)(F)F)n2)n1 [Compound 1.038] | 1 (0-20%) | 1 (0-20%) | 1 (0-20%) | 1 (0-20%) | 2 (21-40%) | 1 (0-20%) | 2 (21-40%) | 1 (0-20%) | 1 (0-20%) | 2 (21-40%)
FC(F)CCn1nc(C(F)F)cc1Cc1ncc(Cl)cn1 [Compound 1.008] | 3 (41-60%) | 3 (41-60%) | 1 (0-20%) | 4 (61-80%) | 5 (81-100%) | 5 (81-100%) | 4 (61-80%) | 3 (41-60%) | 1 (0-20%) | 4 (61-80%)
CC(C)(C#N)CCCn1nc(C(F)(F)F)cc1Cc1ncc(Cl)cn1 [Compound 1.029] | 3 (41-60%) | 4 (61-80%) | 3 (41-60%) | 3 (41-60%) | 4 (61-80%) | 5 (81-100%) | 3 (41-60%) | 5 (81-100%) | 2 (21-40%) | 3 (41-60%)
FC(F)c1cc(Cc2ncc(Cl)cn2)n(CCC2CC2)n1 [Compound 1.003] | 1 (0-20%) | 1 (0-20%) | 1 (0-20%) | 3 (41-60%) | 4 (61-80%) | 4 (61-80%) | 1 (0-20%) | 1 (0-20%) |  | 
FC(F)c1cc(Cc2ncc(Cl)cn2)n(CCC(F)(F)F)n1 [Compound 1.007] | 3 (41-60%) | 4 (61-80%) | 2 (21-40%) | 3 (41-60%) | 5 (81-100%) | 5 (81-100%) | 2 (21-40%) | 4 (61-80%) |  | 
FC(F)c1cc(Cc2ncc(Cl)cn2)n(CCCC(F)(F)F)n1 [Compound 1.002] | 1 (0-20%) | 2 (21-40%) | 1 (0-20%) | 2 (21-40%) | 5 (81-100%) | 5 (81-100%) | 1 (0-20%) | 3 (41-60%) |  | 
FC(F)CCCn1nc(C(F)(F)F)cc1Cc1ncc(Cl)cn1 [Compound 1.005, 5-chloro-2-[[2-(4,4-difluorobutyl)-5-(trifluoromethyl)pyrazol-3-yl]methyl]pyrimidine] |  | 5 (81-100%) | 4 (61-80%) | 3 (41-60%) | 5 (81-100%) | 5 (81-100%) | 4 (61-80%) | 5 (81-100%) | 4 (61-80%) | 5 (81-100%)
FC(F)(F)CCn1nc(C(F)(F)F)cc1Cc1ncc(Cl)cn1 [Compound 1.010] | 4 (61-80%) | 5 (81-100%) | 4 (61-80%) | 3 (41-60%) | 5 (81-100%) | 5 (81-100%) | 5 (81-100%) | 5 (81-100%) |  | 
FC(F)CCCn1nc(C(F)F)cc1Cc1ncc(Cl)cn1 [Compound 1.004] | 3 (41-60%) | 3 (41-60%) | 1 (0-20%) | 2 (21-40%) | 4 (61-80%) | 4 (61-80%) | 1 (0-20%) | 2 (21-40%) |  | 
